For one assay, the target named is EtCKIα (Eimeria tenella, UniProt Q6QNL9). The assay is described as follows: Casein kinase assay, partially purified native EtCKIα. Format: biochemical. The conditions noted are these: partially purified native enzyme from Eimeria oocysts; read-out: IC50, nativeEtCKIα. The method, then:
(§1) Protein kinase assays—Casein kinase activity was assayed essentially as described (Donald, R. G. K. et al., 2002, supra) using 96-well phosphocellulose plates (MAPH-NOB, Millipore; Billerica, Mass.) to capture ^33P-phosphorylated peptide or casein substrates. Kinase reactions were carried out in 40 μl volumes containing 25 mM Hepes, pH 7.4, 10 mM MgCl2, 20 mM β-glycerophosphate, 1 mM DTT, 250 μM substrate, 1 mg/mL BSA, 2 μM ATP, and 0.01 μM [γ-^33P]ATP (Perkin-Elmer, 3000 Ci/mmol). The reactions were initiated by the addition of enzyme and incubated at room temperature for 60 min. Casein (5% solution), partially dephosphorylated α-casein and β-casein were obtained from Sigma.
(§2) A variety of commercially available peptide substrates were evaluated. From Calbiochem (San Diego, Calif.): CKI substrate (RRKDLHDDEEDEAMSITA; SEQ ID NO:13); CKII substrate (RRADDSDDDDD; SEQ ID NO:14); Syntide-2 substrate (PLARTLSVAGLPGKK; SEQ ID NO:15); CaM kinase II substrate (281-291) (MHKNETVECLK; SEQ ID NO:16). From Promega: CKI substrate (DDDEESITRR; SEQ ID NO:17) and kemptide (LRRASLG; SEQ ID NO:18). From New England Biolabs (Beverly, Mass.): CKI phosphopeptide substrate (KRRRALS(p)VASLPGL; SEQ ID NO:19), and CKII substrate (RRREEETEEE; SEQ ID NO:20). PKG assays were performed with kemptide as substrate and 10 μM cGMP. CDPK was assayed with Syntide-2 substrate and in the presence of 100 μM CaCl2.
Partial purification of native EtCKIα—The inability to stably express recombinant EtCKIα in T. gondii provided impetus to purify native enzyme from E. tenella parasites (slide 5). A lysate was prepared from 2×10^10 unsporulated oocysts using previously published procedures (Gurnett, A. M. et al., 2002, supra). The first two steps of the purification scheme used were essentially scaled-up from the method described for the purification of native TgCKIα. The lysate was subjected to preparative HiLoad Q anion-exchange chromatography and fractions eluted with a NaCl gradient (0-1 M NaCl). […]

The target of another assay is T1, TgCDPK1 (Toxoplasma gondii, UniProt Q9BJF5).
T1 construct: The TgCDPK1 open reading frame was amplified by PCR from a Toxoplasma cDNA library; made in house
T1 sequence (Q9BJF5 entry or part of it): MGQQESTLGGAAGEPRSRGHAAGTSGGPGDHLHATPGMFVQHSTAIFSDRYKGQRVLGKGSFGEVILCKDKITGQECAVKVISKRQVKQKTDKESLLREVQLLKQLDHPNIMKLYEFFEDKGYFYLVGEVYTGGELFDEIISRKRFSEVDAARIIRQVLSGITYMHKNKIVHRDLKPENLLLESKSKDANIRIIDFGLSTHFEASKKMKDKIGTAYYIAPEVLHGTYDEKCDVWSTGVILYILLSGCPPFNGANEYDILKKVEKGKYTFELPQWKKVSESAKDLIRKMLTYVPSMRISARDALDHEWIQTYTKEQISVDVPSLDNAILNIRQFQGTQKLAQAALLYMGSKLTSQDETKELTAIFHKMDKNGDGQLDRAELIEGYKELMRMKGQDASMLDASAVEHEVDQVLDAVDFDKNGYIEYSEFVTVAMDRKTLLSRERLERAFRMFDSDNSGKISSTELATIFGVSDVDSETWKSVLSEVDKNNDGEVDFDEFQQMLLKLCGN
The assay is described as follows: CDPK assay with Syntide-2, T. gondii CDPK1. Format: biochemical. The method, then: as §1, §2
Purification of recombinant TgCDPK1 and TgPKG—The TgCDPK1 open reading frame was amplified by PCR from a Toxoplasma cDNA library, using primers based on the published sequence (Kieschnick et al., 2001, supra): sense primer, […] (SEQ ID NO:44); and, antisense primer, […] (SEQ ID NO:45). A C-terminal FLAG epitope tag was appended to the TgCDPK1 open reading frame by an additional round of PCR amplification (KOD polymerase) and the resulting DNA fragment was sub-cloned into a tubulin promoter expression vector (Donald and Liberator, 2002, supra). […]

In the next assay the target is FLAGTgCDPK3 (Toxoplasma gondii, UniProt A0A125YQG4). Nature of the assay: Protein kinase assay, FLAGTgCDPK3. Type of assay: biochemical. The conditions noted are these: read-out: IC50, FLAGTgCDPK3; recombinant enzyme, dose response titrations. As for the experimental part: as §1, §2
FLAGTgCDPK3, sequence (A0A125YQG4 entry or part of it): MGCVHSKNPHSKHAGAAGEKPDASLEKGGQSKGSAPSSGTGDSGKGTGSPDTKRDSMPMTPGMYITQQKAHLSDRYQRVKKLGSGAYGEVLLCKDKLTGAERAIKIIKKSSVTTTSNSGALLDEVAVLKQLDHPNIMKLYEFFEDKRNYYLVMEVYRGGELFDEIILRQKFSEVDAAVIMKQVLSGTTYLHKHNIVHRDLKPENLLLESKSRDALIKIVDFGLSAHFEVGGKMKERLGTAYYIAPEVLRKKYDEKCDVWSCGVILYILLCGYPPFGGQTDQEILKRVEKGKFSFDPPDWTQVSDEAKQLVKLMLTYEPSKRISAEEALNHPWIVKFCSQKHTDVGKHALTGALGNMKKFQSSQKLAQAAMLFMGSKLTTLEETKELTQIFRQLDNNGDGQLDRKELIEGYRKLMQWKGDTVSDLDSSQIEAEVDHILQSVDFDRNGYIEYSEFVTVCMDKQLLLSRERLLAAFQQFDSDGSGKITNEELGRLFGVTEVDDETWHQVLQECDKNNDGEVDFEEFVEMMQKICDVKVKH
The next assay addresses FLAGEtCDPK1 (Eimeria tenella, UniProt Q3HNM4). The assay is described as follows: Protein kinase assay, FLAGEtCDPK1. Format: biochemical. The conditions noted are these: recombinant enzyme, dose response titrations. As for the experimental part:
as §1, §2

The target of another assay is T2, EtPKG (Eimeria tenella, UniProt Q8MMZ8).
T2 construct: Eimeria oocysts (EtCKIα and EtPKG); from tissue; host or cells: Eimeria oocysts
T2 sequence (Q8MMZ8 whole entry): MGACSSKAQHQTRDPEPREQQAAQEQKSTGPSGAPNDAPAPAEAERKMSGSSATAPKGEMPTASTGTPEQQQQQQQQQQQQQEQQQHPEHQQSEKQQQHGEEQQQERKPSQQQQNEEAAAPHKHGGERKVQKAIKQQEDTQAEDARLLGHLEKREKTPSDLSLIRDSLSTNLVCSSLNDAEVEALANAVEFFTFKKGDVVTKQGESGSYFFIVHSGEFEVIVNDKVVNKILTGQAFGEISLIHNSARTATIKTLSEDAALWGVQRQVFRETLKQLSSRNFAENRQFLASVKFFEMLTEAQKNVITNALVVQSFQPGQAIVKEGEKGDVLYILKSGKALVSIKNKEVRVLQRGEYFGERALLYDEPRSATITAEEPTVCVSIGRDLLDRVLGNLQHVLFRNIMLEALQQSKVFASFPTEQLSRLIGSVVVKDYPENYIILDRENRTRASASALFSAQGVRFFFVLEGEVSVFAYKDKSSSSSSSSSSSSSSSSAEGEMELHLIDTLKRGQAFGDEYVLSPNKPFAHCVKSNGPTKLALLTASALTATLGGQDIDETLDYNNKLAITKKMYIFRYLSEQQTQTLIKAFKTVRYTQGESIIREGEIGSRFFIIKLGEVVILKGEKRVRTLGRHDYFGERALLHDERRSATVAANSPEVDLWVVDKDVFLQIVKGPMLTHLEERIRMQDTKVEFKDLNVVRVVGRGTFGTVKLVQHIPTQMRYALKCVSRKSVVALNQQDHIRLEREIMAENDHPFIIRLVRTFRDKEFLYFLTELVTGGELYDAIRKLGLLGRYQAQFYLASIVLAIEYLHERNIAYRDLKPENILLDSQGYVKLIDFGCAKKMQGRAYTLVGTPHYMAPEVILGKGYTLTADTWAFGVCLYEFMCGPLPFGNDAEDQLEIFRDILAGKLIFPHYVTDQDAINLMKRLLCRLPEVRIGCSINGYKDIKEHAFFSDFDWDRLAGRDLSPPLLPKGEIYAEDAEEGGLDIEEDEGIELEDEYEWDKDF
The assay is described as follows: PKG assay with kemptide, native EtPKG. Type of assay: biochemical. The conditions noted are these: native enzyme from Eimeria oocysts; read-out: IC50, nativeEtPKG. The method, then: as §1, §2

For a further assay, the target named is TgCKIα (Toxoplasma gondii, UniProt Q6QNM1). The assay is described as follows: Casein kinase assay, TgCKIα (recombinant FLAGTgCKIα or partially purified native). Type of assay: biochemical. More on the design: Km(app), native TgCKIα; other: substrate titration, 2 μM ATP; IC50, nativeTgCKIα; other: partially purified native enzyme from Toxoplasma tachyzoites; sensitivity of native TgCKIα phosphopeptide kinase activity (HiTrapQ fractions 5-9); other: 0.2 μM hymenialdisine or 1. The method, then:
Protein kinase assays—Casein kinase activity was assayed essentially as described (Donald, R. G. K. et al., 2002, supra) using 96-well phosphocellulose plates (MAPH-NOB, Millipore; Billerica, Mass.) to capture ^33P-phosphorylated peptide or casein substrates. Kinase reactions were carried out in 40 μl volumes containing 25 mM Hepes, pH 7.4, 10 mM MgCl2, 20 mM β-glycerophosphate, 1 mM DTT, 250 μM substrate, 1 mg/mL BSA, 2 μM ATP, and 0.01 μM [γ-^33P]ATP (Perkin-Elmer, 3000 Ci/mmol). […] Casein (5% solution), partially dephosphorylated α-casein and β-casein were obtained from Sigma.
as §2
Purification of recombinant CKI enzymes—E. coli strain BL21 Origami™ (Novagen) was transformed with FLAGTgCKIα and FLAGTgCKIβ expression vectors, and colonies were expanded into 250 mL LB cultures grown at 37° C. Expression was induced with 1 mM IPTG once cultures had reached an OD600nm of 0.3-0.5, and the transformed bacteria were harvested 4-6 hours later. Cell pellets were resuspended in 15 mL of lysis buffer containing protease inhibitors and lysates prepared as described by the supplier (Bugbuster™ reagents, Novagen). The concentration of NaCl in the lysate was adjusted to 0.5 M, and 0.5 mL of FLAG-agarose beads were added (Sigma). The mixture was allowed to rock in a Nutator mixer (Becton-Dickinson; San Jose, Calif.) for 2 hours at 4° C. The slurry was then poured into an empty column and the matrix washed with 50 mL of wash buffer (50 mM Tris-HCl, pH 7.4, 0.5M NaCl, 10% glycerol, 1 mM DTT, 1 mM EDTA). […] Protein was measured with a micro-BCA reagent (Pierce) following a TCA-sodium deoxycholate step to remove residual FLAG peptide (Brown et al., 1989, Anal. Biochem. 180:136-139). […]
(§3) Preparations of FLAGTgCKIα and FLAGTgCKIβ were purified further on a SMART system FPLC 0.1 mL MonoQ anion exchange column (Pharmacia; New York, N.Y.) equilibrated in buffer A (50 mM Hepes, pH 7.4, 10% glycerol, 1 mM DTT) at room temperature. […] A linear salt gradient was applied (0-500 mM in 3 mL at 100 μl/min) and 100 μl fractions were collected and analyzed by SDS-PAGE and for CKI activity. […]

The subject of another assay is T. gondii. The assay is described as follows: Parasite growth inhibition, modified [3H]-uracil uptake assay in infected HFF cell monolayers. Type of assay: cell-based, Toxoplasma gondii. The conditions noted are these: Toxoplasma gondii, HFF. The text has this: Host cells and parasite cultures—RH strain or RH ΔHXGPRT strain tachyzoites of T. gondii were maintained by serial passage in confluent monolayers of human foreskin fibroblasts (“HFF”) as described (Roos, D. S. et al., 1994, Methods Cell Biol. 45:27-63). A modified [^3H]-uracil uptake assay (Pfefferkorn, E. R. and Pfefferkorn, L. C., 1977, J. Protozool. 24:449-453) adapted for use in 96-well scintillation plates (Cytostar-T, Amersham; Piscataway, N.J.) was used to measure parasite growth inhibition. Each well, previously seeded with HFF cells, was inoculated with T. gondii tachyzoites (2×10^4) in 200 μl of growth media containing 2 μCi [5,6]-^3H-uracil (Perkin-Elmer NEN; Boston, Mass.) and serially diluted compound. Following incubation at 37° C. for 36-48 hours, tritium-incorporation into host cell monolayers was directly counted in a microplate scintillation counter (MicroBeta, PerkinElmer-Wallac).
The only other CDK inhibitor with sub-μM activity against T. gondii was indirubin-3′-monoxime, which gave an IC50 value of 500 nM.

The target of assay [1] is T3, Toxoplasma gondii casein kinase I alpha (TgCKIα), recombinant FLAG-tagged or native, SEQ ID NO:4 (Toxoplasma gondii, UniProt Q6QNM1).
T3 construct: same protein
T3 sequence (Q6QNM1 whole entry): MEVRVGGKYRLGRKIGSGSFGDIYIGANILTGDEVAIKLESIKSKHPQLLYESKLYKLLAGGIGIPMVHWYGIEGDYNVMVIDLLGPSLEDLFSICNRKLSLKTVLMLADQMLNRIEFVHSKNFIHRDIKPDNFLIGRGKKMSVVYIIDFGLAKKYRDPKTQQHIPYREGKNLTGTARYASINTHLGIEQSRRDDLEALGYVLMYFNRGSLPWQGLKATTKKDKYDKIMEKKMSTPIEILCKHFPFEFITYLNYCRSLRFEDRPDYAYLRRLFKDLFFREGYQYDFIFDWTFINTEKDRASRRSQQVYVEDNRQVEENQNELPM
The assay is described as follows: Casein kinase assay, inhibition of TgCKIα (recombinant or native forms). Type of assay: biochemical. The method, then: as §1
A variety of commercially available peptide substrates were evaluated. From Calbiochem (San Diego, Calif.): CKI substrate (RRKDLHDDEEDEAMSITA; SEQ ID NO:13); CKII substrate (RRADDSDDDDD; SEQ ID NO:14); Syntide-2 substrate (PLARTLSVAGLPGKK; SEQ ID NO:15); CaM kinase II substrate (281-291) (MHKNETVECLK; SEQ ID NO:16). […]
as §3

The target of assay [2] is T4, Toxoplasma gondii calmodulin domain-like protein kinase 1 (FLAGTgCDPK1, recombinant) (Toxoplasma gondii, UniProt Q9BJF5).
T4 construct: FLAG (C); made in house; host or cells: transgenic Toxoplasma gondii parasites
T4 sequence (Q9BJF5 entry or part of it): as the sequence (Q9BJF5 entry or part of it) above
Nature of the assay: Kinase assay, inhibition of recombinant TgCDPK1. The conditions noted are these: CDK inhibitor study (text to Table 2). Format: biochemical. As for the experimental part:
as §1
A variety of commercially available peptide substrates were evaluated. […]
Purification of recombinant TgCDPK1 and TgPKG—The TgCDPK1 open reading frame was amplified by PCR from a Toxoplasma cDNA library, using primers based on the published sequence (Kieschnick et al., 2001, supra): sense primer, […] […] A C-terminal FLAG epitope tag was appended to the TgCDPK1 open reading frame by an additional round of PCR amplification (KOD polymerase) and the resulting DNA fragment was sub-cloned into a tubulin promoter expression vector (Donald and Liberator, 2002, supra). […]

Some results are limits rather than exact numbers.

FLAGEtCDPK1, sequence (Q3HNM4 entry or part of it): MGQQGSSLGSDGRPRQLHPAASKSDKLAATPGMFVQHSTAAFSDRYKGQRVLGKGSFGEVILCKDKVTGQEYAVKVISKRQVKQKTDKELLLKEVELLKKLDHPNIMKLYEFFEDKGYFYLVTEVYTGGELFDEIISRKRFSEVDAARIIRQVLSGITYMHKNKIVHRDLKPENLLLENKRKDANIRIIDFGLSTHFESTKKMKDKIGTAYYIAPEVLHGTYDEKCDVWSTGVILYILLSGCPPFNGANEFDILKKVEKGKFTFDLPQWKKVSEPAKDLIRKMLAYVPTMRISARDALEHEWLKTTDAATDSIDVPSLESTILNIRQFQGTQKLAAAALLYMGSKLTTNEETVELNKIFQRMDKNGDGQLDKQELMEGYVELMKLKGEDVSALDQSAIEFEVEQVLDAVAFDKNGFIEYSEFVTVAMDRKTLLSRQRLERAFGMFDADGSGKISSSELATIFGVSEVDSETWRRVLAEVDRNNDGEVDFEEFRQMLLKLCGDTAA
EtCKIα, sequence (Q6QNL9 whole entry): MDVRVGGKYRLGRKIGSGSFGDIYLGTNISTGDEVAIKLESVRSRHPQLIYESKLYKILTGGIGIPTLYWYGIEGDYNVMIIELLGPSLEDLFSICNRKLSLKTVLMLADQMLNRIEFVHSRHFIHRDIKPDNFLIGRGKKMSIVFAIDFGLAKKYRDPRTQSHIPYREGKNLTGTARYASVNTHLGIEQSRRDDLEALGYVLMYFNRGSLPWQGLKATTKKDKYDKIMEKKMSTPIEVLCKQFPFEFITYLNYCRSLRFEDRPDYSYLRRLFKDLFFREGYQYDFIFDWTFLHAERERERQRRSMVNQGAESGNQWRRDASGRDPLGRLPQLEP
TgCKIα, sequence (Q6QNM1 whole entry, looked up): as the sequence (Q6QNM1 whole entry) above

With `CN1CCC(c2ccn3c(-c4ccnc(N)n4)c(-c4ccc(F)cc4)nc3c2)CC1` [Compound 39, 4[2-(4-Fluorophenyl)1-7-(1-methylpiperidin-4-yl)imidazo[1,2-a]pyridin-3-yl]pyrimidin-2-amine], the IC50 (usually the point on the concentration scale where inhibition reaches its midpoint) is 69 nM at EtCKIα; 0.5 nM on TgCDPK1; more than 10 µM at FLAGTgCDPK3; 126 nM on FLAGEtCDPK1; 0.5 nM on EtPKG; 15 nM on TgCKIα.

In the case of `O=C1Nc2ccccc2/C1=C1/Nc2ccccc2/C1=N\O` [indirubin-3′-monoxime], the IC50 came to 500 nM in the assay with T. gondii, 172 nM in assay [1] and 175 nM in assay [2].

Values taken from patent US7671181B2, “Polynucleotides encoding coccidian parasite casein kinase I, a chemotherapeutic target for antiprotozoal agents” (Merck Sharp & Dohme Corp., priority 2004, dated 2010).
